Source: PMC3098219, “Protective Efficacy of Serially Up-Ranked Subdominant CD8^+ T Cell Epitopes against Virus Challenges” (PLoS Pathogens, 2011)

Legend:
[1] = test system: CD8^+ splenocytes of DNA-immunized mice; experiment: ICS T cell avidity (peptide titration, CD107a/b and IFN-γ); assay type: cell-based, BALB/c mice; conditions: Figure 3B; individual determinants when dominant: H in group HIVA, P in HIVAdH, G1 in dHmP, NPP in dHmPG1; 3x 100 µg DNA; 5 h
Procedure: (§1) T2 cell lines were incubated with decreasing peptide concentrations ranging from 100 µM to 0.1 µM indicated above the H peptide histogram and the cell surface peptide-loaded MHC complexes were detected by fluorochrome-conjugated mAb (DB Biosciences) and quantified using FACS flow cytometer. B) and C) Groups of 3 BALB/c mice were given 3x immunizations using 100 µg of DNA expressing the index or mutated forms of HIVA at 3 wk intervals and their T cell responses were analyzed 4 wk later. B) Splenocytes were assessed in an ICS assay using peptides indicated above the graphs at concentrations ranging from 10 to 10^−8 µM for 5 h. Cells were gated on IFN-γ-producing CD8^+ T cell populations positive (top) or negative (bottom) for CD107a/b. Note the different y-axis scales on the top and bottom graphs. C) The response kinetics of CD8^+ T cells re-stimulated with 0.1 µM peptides was assessed in an ICS assay in 1-h intervals for a period of 4 h. Data shown are as mean±SD of [CD8^+CD107a/b^+IFN-γ^+ cells at each time point (%)] ÷ [CD8^+CD107a/b^+IFN-γ^+ at 4 h (%)]. One out of two independent experiments is shown.
We also measured avidities of T cell responses recovered through the sequential HIVA epitope up-ranking. First, responsiveness of immune splenocytes following 3 plasmid DNA deliveries was measured in an ICS assay upon re-stimulation with peptide concentrations ranging from 10^−8 to 10 µM for 5 h (Figure 3A).

[2] = test system: CD8^+ T cells; experiment: ICS of HIVB-induced responses pre- and post-EcoHIV challenge; conditions: Figure 7B, pTH.HIVB DNA twice
[3] = test system: splenocytes of pTHr.HIVA immunized mice; experiment: IFN-γ ELISPOT immunogenicity of HIVA; assay type: cell-based, BALB/c mice; conditions: Figure 1B and D top
[4] = test system: H-2D^d, H-2K^d or H-2L^d complexes; experiment: T2 peptide binding assay, respective MHC class I complexes; conditions: Figure 3A; TAP-deficient T2 cells, 100 µM to 0.1 µM peptide, 14 h at 37°C, FACS
Procedure: as §1, with “Figure 3 Contributing mechanisms of immunodominance. […] T2” for “T2”
TAP2 ([…])-deficient T2 cell lines stably expressing D^d, K^d, and L^d molecules kindly provided by Dr. Ted Hansen (Washington university, U.S.A.) were used to assess the ability of MHCs to bind each peptide. In brief, 1×10^5 cells were incubated with 0/0.1/1.0/10/100 µM peptides in no-serum RPMI (R-0) for 14 h at 37°C, 5% CO2 in a flat-bottomed 96-well plate. 14 h later, cells were transferred to a round-bottomed 96-well plate and washed with PBS before staining the cells with anti-H-2K^d/H-2D^d-PE or anti-H-2L^d-PE (eBioscience) monoclonal antibodies. Cells were then analyzed on a FACS flow cytometer.

With “AMQMLKDTI [G1, H-2K^d-restricted, Gag residues 197–205]” the “peak IFN-γ^+CD107a/b^+CD8^+ cell frequencies at 10 µM peptide” value [1] was 3.8 % of total CD8^+ splenocytes, the “CD8^+ T cell response after HIVB vaccination” value [2] was “the only detectable CD8^+ T cell response” and the “T cell response to G1 from HIVA” value [3] was “hardly detectable responses”. The “peptide binding affinities for respective MHC class I” value [4] was “directly correlated with the immunodominance hierarchy”.
